# What was measured:
# Alu element methylation = assay: Alu element assay (COBRA) on peripheral blood of leukemia patients treated with decitabine; assay type: in vivo, human
# Procedure: FIG. 6 illustrates treatment schema of patient samples. Patients were treated as part of a Phase II study of Decitabine which was given initially a dose of 90 mg/m2 twice daily for 5 consecutive days. This dose was later decreased to 50 mg/m2 twice daily due to toxicity. In this “High” Dose Study a total dose of 500-900 mg/m2 of decitabine was given over a 5 day period. Peripheral blood specimens were collected on day 0 or 1 prior to treatment, days 2-4 during treatment, and on days 5 or 6 after the completion of treatment. In the second study, a Phase I strategy of “Low” Dose Decitabine was used. This study was designed to take advantage of Decitabine's demethylating properties. Escalating doses of Decitabine of 5, 10, 15 and 20 mg/m2 were given as ten daily doses over a two week period. The total dose delivered was only 50 to 200 mg/m2 over a 14 day period. Peripheral blood specimens were collected on day 0 or 1 prior to treatment, and during days 2-14 of treatment;
# Normal colon mucosa and colon cancers were collected from consenting patients. Thirty-one matched pairs of normal colon mucosa and colon tumors were used in this study. An additional 9 normal colon samples were collected from patients undergoing colectomy for non-neoplastic reasons. DNA was isolated using standard phenol-chloroform extraction methods. DNA was bisulfite treated as described above. A previously described COBRA assay that examined Alu repetitive elements was developed as a global genome methylation assessment assay (Xiong and Laird, 1997). In brief, a 25 ul PCR reaction was carried out in 60 mM Tris-HCl pH 9.5, 15 mM Ammonium Sulfate, 5.5 mM MgCl2, 10% DMSO, 1 mM dNTP mix, 1 unit of Taq polymerase, 50 pmol of the forward primer (5′-[…]-3′) (SEQ ID NO: 1), 50 pmol of the reverse primer (5′-[…]-3′) (SEQ ID NO:2), and approximately 50 ng of bisulfite treated genomic DNA. PCR cycling conditions were 96° C. for 90 seconds, 43° C. for 60 seconds, and 72° C. for 120 seconds for 27 cycles. After the PCR reaction was complete 15 μl of MboI buffer (New England Biolabs Buffer #3) were added along with 5 units of MboI Restriction Enzyme and water to a final volume of 150 ul. The restriction digestion was incubated at 37° C. overnight to assure complete digestion. The digested PCR product was then precipitated by adding 1 μl glycogen and 2 volumes of ethanol and kept at −20° C. for at least 4 hours. Samples were then centrifuged for 30 minutes, the ethanol was poured off and the pellet was air dried prior to resuspending in a small volume (5-10 μl) of water. The digested PCR products were then run on an Agilent Biosystems DNA analyzer to quantitate the cut ([…]) and uncut ([…]) DNA. Each sample was run at least twice and the data reported is an average of all runs.
# The methylation sites in Alu elements are frequently mutated from C to T by spontaneous deamination, which results in a gross underestimating of the amount of 5-methylcytosine. Therefore, control genomic DNA was double treated with SssI methylase and bisulfite treated to act as a 100% methylated control. Alu methylation is reported as a percentage of this fully methylated control standard.
# Patient samples were collected from patients treated as part of two clinical studies using 5-aza-2′deoxycytidine (decitabine) as a single agent. The first study treated patients with 50-90 mg/m2 of decitabine twice daily for 5 consecutive days (See FIG. 8). The second study was a phase I study which attempted to capitalize on the demethylating properties of decitabine by using a lower dose of decitabine, 5-20 mg/m^2 once daily, for a longer period of time, 10 days over a two week period (See FIG. 8). Peripheral blood samples were collected prior to, during and after treatment. Donation of blood samples for laboratory studies was voluntary and 143 samples were collected from 41 patients participating in both studies (See Table 4). […]
# [1] = tested on: LINE-1 methylation in SW48 cells; assay: COBRA (HinfI) of LINE-1 PCR, SW48 cells treated with DAC; assay type: cell-based, human; conditions: 5 μM DAC for three days, decrease from 59%
# Procedure: Hct116, RKO and SW48, colon cancer cell lines (American Type Culture Collection, Manassas, Va.), were cultured using standard methods. Cells were treated with 5 μM 5-aza-2′deoxycytidine (DAC) for three days prior to being harvested. DNA from cell lines and peripheral blood leukocytes was extracted using phenol-chloroform extraction methods well known to one with skill on the art.
# Bisulfite modification of genomic DNA is known in the art (see Clark et. al, 1994). In brief, 1.5 μg prepared 10 mM hydroquinone (Sigma) and 520 μl of 3M Sodium Bisulfite (Sigma) at pH=5.0 were added and mixed. The samples were overlayed with mineral oil to prevent evaporation and incubated at 50° C. for 16 hours. The bisulfite treated DNA was isolated using Wizard DNA Clean-Up System (Promega). The DNA was eluted by 50 μl of warm water and 5.5 μl of 3M NaOH were added for 5 minutes. The DNA was ethanol precipitated with glycogen as a carrier and resuspended in 20 μl water. Bisulfite treated DNA was stored at −20° C. until ready for use. […]
# In order to test whether Alu element […] LINE-1 methylation could approximate global methylation, COBRA, restriction digestion of the repetitive element PCR product, was used to quantitate DNA methylation in cell lines treated with 5-aza-2′deoxycytidine (DAC) (FIG. 3). […] Thus both assays reliably detected inhibition of methylation induced by DAC. […]
smiles,measurement,setting,value
"Nc1ncn([C@H]2C[C@H](O)[C@@H](CO)O2)c(=O)n1 [decitabine, 5-aza-2′-deoxycytidine]",average Alu demethylation,"Alu element methylation; 41 patients with leukemia, different doses, 4 to 7 days after treatment",7.7%
same,maximum decrease in Alu methylation seen in a single patient,"Alu element methylation; 41 patients with leukemia, 4 to 7 days after treatment",31.5%
same,optimal demethylating dose,"Alu element methylation; DNA methylation at days 5 to 6, both studies (FIG. 9B)",15 to 20 mg/m2/day
same,correlation of Alu demethylation with clinical response,Alu element methylation; High Dose Study (p=0.23),demethylation did not correlate to response
same,mean decrease of Alu element methylation,"Alu element methylation; High Dose study, day 5 to 8",10%
same,correlation of Alu demethylation with clinical response,"Alu element methylation; Low Dose Study (p=0.04 days 5-8, p=0.02 days 9-14)",demethylation did correlate to response
same,decrease in Alu element methylation,"Alu element methylation; Low dose study, day 5 to 8",5%
same,patients showing a paradoxical increase in DNA methylation with decitabine treatment,Alu element methylation; both studies,12%
same,mean decrease in Alu methylation,"Alu element methylation; both studies, overall",7.7%
same,range of decrease in Alu methylation,"Alu element methylation; both studies, overall",−10.3 to 31.5%
same,patients showing a decrease in Alu methylation with decitabine treatment,"Alu element methylation; both studies, 90.5% methylated prior to treatment",88%
same,earliest day demethylation could be detected,Alu element methylation; either dosing regimen,2 days
same,time at which demethylation plateaus,Alu element methylation; low dose decitabine,5 to 8 days
same,time for methylation to return to baseline after finishing treatment (in as little as),Alu element methylation; patients with leukemia,15 days
same,dose dependence of demethylation at higher doses,"Alu element methylation; six dose levels 5-180 mg/m2/day, day 5-6",there did not appear to be a significant increase in demethylation beyond 20 mg/m2/day
same,LINE-1 methylation after treatment with DAC,[1],41%

# Reference: patent US20060019270A1, “Global DNA methylation assessment using bisulfite PCR” (Board of Regents The University of Texas System, priority 2004, published 2006)
